# Measurements published in patent publication US9102931B1, “Yeast strains and method for lignocellulose to ethanol production” (priority 2012, dated 2015).
# How the values were obtained:
# [1] = test system: native xylose uptake of S. cerevisiae Y-50049-YXI (control host strain, YXI xylose isomerase SEQ ID NO: 63, no added xylose transporter gene); assay: Aerobic xylose uptake kinetics (Lineweaver-Burk), host strain Y-50049-YXI (control); format: cell-based; details: whole cells, 30° C.
# Description: The relative performance of yeast strains Y-50746, Y-50747, Y-50748, Y-50749, Y-50465, and Y-50466 containing a xylose isomerase gene and a xylose xylose transporter gene was further assessed in cell populations that were first grown aerobically on xylose and then transferred into fresh culture medium at high cell density. Under these conditions a high metabolic carbon demand creates the potential for transport to be a limiting factor and amplifies volumetric xylose consumption from the medium. Aerobic xylose uptake rate was assessed for the host strain Y-50049−YXI and each of its six xylose transporter-expressing derivatives. […] Once xylose was added to cultures, the reaction timing began, and the first sample was immediately taken, diluted for optical density reading, and centrifuged (10,000 rpm, 6 min). […] Subsequent samples were collected at 2 h, 4 h, 6 h, and the specific xylose consumption rate (V) was calculated as the rate of decline in xylose concentration (X)/per dry cell concentration (b), assuming the linear correlation of dry yeast biomass concentration with absorbance, b=(0.167 g/L). […] The relative statistical differences between strain performances due to the specific transporter gene expressed were determined by running a two-way analysis of variance of V as a function of the transporter gene and the initial xylose concentration. […]
# [2] = target: T1, S. stipitis xylose transporter RGT2, SEQ ID NO: 64, in S. cerevisiae Y-50049-YXI-RGT2 (NRRL Y-50465) (Scheffersomyces stipitis, UniProt J9PF54); assay: Aerobic xylose uptake kinetics (Lineweaver-Burk), Y-50049-YXI-RGT2; format: cell-based; details: whole cells, 30° C.
# T1 construct: whole-cell xylose uptake; S. stipitis CUG codons are read as Leu in this host
# T1 sequence (J9PF54 1-528): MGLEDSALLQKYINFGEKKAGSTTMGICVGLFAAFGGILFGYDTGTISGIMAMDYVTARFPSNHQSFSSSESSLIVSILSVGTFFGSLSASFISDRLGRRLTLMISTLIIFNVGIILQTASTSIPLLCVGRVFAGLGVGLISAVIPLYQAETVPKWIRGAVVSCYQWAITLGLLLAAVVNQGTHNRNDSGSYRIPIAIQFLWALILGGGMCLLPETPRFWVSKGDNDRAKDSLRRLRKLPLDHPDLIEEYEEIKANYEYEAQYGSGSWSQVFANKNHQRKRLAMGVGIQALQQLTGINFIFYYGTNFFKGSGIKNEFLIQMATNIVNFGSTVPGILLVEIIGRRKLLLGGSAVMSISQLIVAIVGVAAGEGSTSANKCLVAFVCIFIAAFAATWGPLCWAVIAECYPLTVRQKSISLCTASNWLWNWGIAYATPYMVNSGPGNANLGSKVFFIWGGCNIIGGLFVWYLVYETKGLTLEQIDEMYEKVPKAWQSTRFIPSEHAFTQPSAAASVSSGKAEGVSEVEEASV
# Description: (§1) A portion of promoter and terminator for PGK1 was amplified from S. cerevisiae NRRL Y-50049 genomic DNA using primers PGK_PL/PGK_PR and PGK_TL/PGK_TR, as detailed in the Description of Sequences above. Amplified PGK1 fragments were cloned into vector pRS42H resulting in pRS42H -PGK1 promoter-terminator. Six putative xylose transporter genes XUT4, XUT5, XUT6, XUT7, RGT2, and SUT4 were amplified using various primers from the genomic DNA of S. stipitis. Each xylose transporter gene was cloned into the S. cerevisiae expression vector pRS42H-PGK1 promoter-terminator with proper restriction endonuclease sites designed. All DNA oligos were synthesized by IDT (Coralville, Iowa). […]
# (§2) The relative performance of yeast strains Y-50746, Y-50747, Y-50748, Y-50749, Y-50465, and Y-50466 containing a xylose isomerase gene and a xylose xylose transporter gene was further assessed in cell populations that were first grown aerobically on xylose and then transferred into fresh culture medium at high cell density. […] Aerobic xylose uptake rate was assessed for the host strain Y-50049−YXI and each of its six xylose transporter-expressing derivatives. […] Once xylose was added to cultures, the reaction timing began, and the first sample was immediately taken, diluted for optical density reading, and centrifuged (10,000 rpm, 6 min). […]
# [3] = target: T2, S. stipitis xylose transporter SUT4, SEQ ID NO: 69, in S. cerevisiae Y-50049-YXI-SUT4 (NRRL Y-50748) (Scheffersomyces stipitis, UniProt J9Q8Z9); assay: Aerobic xylose uptake kinetics (Lineweaver-Burk), Y-50049-YXI-SUT4; format: cell-based; details: whole cells, 30° C.
# T2 construct: whole-cell xylose uptake; S. stipitis CUG codons are read as Leu in this host
# T2 sequence (J9Q8Z9 1-549): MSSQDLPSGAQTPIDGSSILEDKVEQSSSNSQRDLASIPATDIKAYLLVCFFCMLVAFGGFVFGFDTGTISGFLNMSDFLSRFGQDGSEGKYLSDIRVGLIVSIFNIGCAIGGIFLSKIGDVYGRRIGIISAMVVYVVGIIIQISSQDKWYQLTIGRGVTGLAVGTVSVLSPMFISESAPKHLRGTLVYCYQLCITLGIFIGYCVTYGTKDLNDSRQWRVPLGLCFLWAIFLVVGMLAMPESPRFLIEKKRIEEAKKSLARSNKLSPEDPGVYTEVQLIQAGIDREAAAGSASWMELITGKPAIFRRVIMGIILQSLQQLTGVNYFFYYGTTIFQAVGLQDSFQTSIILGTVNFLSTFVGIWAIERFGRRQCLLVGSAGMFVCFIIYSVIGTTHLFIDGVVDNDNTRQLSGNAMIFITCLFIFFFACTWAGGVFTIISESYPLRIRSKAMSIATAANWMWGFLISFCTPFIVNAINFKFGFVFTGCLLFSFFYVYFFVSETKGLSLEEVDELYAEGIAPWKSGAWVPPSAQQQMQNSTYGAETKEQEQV
# Description: as §1, §2
# [4] = target: T3, S. stipitis xylose transporter XUT4, SEQ ID NO: 68, in S. cerevisiae Y-50049-YXI-XUT4 (NRRL Y-50747) (Scheffersomyces stipitis, UniProt J9PED0); assay: Aerobic xylose uptake kinetics (Lineweaver-Burk), Y-50049-YXI-XUT4; format: cell-based; details: whole cells, 30° C.
# T3 construct: whole-cell xylose uptake; S. stipitis CUG codons are read as Leu in this host
# Description: as §1, §2
# [5] = target: T4, S. stipitis xylose transporter XUT5, SEQ ID NO: 66, in S. cerevisiae Y-50049-YXI-XUT5 (NRRL Y-50746) (Scheffersomyces stipitis, UniProt A3LY79); assay: Aerobic xylose uptake kinetics (Lineweaver-Burk), Y-50049-YXI-XUT5; format: cell-based; details: whole cells, 30° C.
# T4 construct: whole-cell xylose uptake; S. stipitis CUG codons are read as Leu in this host
# Description: as §1, §2
# [6] = target: T5, S. stipitis xylose transporter XUT6, SEQ ID NO: 67, in S. cerevisiae Y-50049-YXI-XUT6 (NRRL Y-50749) (Scheffersomyces stipitis, UniProt J9Q9F3); assay: Aerobic xylose uptake kinetics (Lineweaver-Burk), Y-50049-YXI-XUT6; format: cell-based; details: whole cells, 30° C.
# T5 construct: whole-cell xylose uptake; S. stipitis CUG codons are read as Leu in this host
# T5 sequence (J9Q9F3 1-544): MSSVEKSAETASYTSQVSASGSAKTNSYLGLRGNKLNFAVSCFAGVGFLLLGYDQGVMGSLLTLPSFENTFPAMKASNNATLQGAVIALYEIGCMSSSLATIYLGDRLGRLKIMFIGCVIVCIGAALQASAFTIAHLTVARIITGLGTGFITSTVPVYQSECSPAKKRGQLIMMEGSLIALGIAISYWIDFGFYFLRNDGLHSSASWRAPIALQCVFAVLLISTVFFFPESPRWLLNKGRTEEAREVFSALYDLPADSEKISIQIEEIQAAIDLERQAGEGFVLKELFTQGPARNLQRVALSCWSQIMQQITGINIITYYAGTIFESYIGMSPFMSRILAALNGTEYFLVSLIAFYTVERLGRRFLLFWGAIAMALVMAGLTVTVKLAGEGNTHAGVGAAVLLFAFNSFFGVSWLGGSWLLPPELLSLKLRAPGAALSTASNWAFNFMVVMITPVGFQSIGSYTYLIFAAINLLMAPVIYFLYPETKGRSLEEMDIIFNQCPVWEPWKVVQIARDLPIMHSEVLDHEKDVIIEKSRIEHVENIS
# Description: as §1, §2
# [7] = target: T6, S. stipitis xylose transporter XUT7, SEQ ID NO: 65, in S. cerevisiae Y-50049-YXI-XUT7 (NRRL Y-50466) (Scheffersomyces stipitis, UniProt J9PER1); assay: Aerobic xylose uptake kinetics (Lineweaver-Burk), Y-50049-YXI-XUT7; format: cell-based; details: whole cells, 30° C.
# T6 construct: whole-cell xylose uptake; S. stipitis CUG codons are read as Leu in this host
# T6 sequence (J9PER1 1-418): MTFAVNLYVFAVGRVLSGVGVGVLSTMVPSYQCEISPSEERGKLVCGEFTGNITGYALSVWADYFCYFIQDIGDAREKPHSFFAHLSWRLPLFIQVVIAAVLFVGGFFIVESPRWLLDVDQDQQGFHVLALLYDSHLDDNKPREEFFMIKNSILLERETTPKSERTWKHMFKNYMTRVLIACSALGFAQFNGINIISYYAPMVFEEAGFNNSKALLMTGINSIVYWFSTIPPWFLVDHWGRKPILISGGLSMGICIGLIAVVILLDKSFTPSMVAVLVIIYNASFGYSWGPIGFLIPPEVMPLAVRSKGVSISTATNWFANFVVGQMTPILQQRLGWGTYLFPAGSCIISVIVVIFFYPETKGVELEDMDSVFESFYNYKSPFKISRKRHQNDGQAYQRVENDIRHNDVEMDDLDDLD
# Description: as §1, §2
# [8] = test system: S. stipitis Y-7124 xylose proton symporters; details: associated with S. stipitis symport, approximate (~); cited from earlier work
# T3 sequence (J9PED0 entry or part of it): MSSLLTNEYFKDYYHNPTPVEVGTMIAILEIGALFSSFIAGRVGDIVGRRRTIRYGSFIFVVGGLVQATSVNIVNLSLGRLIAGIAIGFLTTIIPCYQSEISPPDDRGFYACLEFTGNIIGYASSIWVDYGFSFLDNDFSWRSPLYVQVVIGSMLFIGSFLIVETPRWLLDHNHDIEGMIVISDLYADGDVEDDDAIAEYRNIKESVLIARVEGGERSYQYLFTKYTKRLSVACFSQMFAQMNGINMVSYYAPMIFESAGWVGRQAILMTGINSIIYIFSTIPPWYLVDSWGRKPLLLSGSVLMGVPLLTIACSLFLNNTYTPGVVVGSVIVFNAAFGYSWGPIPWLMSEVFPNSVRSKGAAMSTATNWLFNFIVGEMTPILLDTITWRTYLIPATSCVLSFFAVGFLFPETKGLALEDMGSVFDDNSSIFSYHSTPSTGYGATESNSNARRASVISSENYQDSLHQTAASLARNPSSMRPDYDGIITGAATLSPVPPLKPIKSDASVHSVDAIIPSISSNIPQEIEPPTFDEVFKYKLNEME
# T4 sequence (A3LY79 entry or part of it): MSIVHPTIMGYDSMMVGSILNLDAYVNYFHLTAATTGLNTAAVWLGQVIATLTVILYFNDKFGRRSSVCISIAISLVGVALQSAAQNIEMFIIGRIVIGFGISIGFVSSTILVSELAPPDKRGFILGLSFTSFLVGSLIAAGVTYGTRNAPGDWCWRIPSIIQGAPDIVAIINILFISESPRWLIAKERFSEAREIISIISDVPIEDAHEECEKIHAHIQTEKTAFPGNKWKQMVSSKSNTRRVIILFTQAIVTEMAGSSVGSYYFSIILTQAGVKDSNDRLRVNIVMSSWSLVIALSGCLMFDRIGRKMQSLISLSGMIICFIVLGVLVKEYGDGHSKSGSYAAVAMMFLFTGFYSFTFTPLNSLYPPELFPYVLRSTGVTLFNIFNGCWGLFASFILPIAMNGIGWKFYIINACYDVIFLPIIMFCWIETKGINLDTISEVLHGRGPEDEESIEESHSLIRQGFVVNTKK
smiles,measurement,setting,value
"OC1OC[C@@H](O)[C@H](O)[C@H]1O (stereo partly drawn) [xylose, D-xylose]",Vmax,[1],0.14 g/g/h
same,Vmax,[2],0.28 g/g/h
same,Vmax,[3],0.36 g/g/h
same,Vmax,[4],0.35 g/g/h
same,Vmax,[5],0.88 g/g/h
same,Vmax,[6],0.33 g/g/h
same,Vmax,[7],0.26 g/g/h
same,Km,[8],0.01 to 0.3 g/L
